ChEMBL document CHEMBL1126536, “Synthesis and antimalarial evaluation of 2,3,5-trioxabicyclo[2.2.3]nonane, a model for the putative pharmacophore of artemisinin” (Bioorg Med Chem Lett, 1993)
Converted amounts (≈) assume the structure as drawn.

Tests used:
[1] = system: Plasmodium falciparum; test: (§1) Inhibitory concentration against chloroquine-sensitive Plasmodium falciparum D-8; type: functional, organism-based
[2] = system: Plasmodium falciparum; test: as §1; type: functional
[3] = system: Plasmodium falciparum; test: (§2) Inhibitory concentration against […] Plasmodium falciparum W-2; type: functional
[4] = system: Plasmodium falciparum; test: as §2; type: functional, organism-based
[5] = system: Plasmodium falciparum; test: Inhibitory concentration against […] Plasmodium falciparum W2; type: functional
[6] = Plasmodium falciparum, read-out: IC50
[7] = Plasmodium falciparum, read-out: IC10
[8] = Plasmodium falciparum, read-out: IC90

C1CC2COC(C1)OO2 (stereo unspecified)
IC50 [1, 6]: 2.45 µg/mL (≈ 18.8 µM)
IC10 [2, 7]: 1.34 µg/mL (≈ 10.3 µM)
IC90 [2, 8]: 4.47 µg/mL (≈ 34.3 µM)

COC1CCCC(OO)CO1 (single isomer, unassigned; isomer A)
IC10 [3]: 3.33249 µg/mL (≈ 20.5 µM)
IC50 [4]: 6.52488 µg/mL (≈ 40.2 µM)
IC50 [1, 6]: 7.49 µg/mL (≈ 46.2 µM)
IC10 [2, 7]: 2.46 µg/mL (≈ 15.2 µM)
IC90 [2, 8]: 22.8 µg/mL (≈ 141 µM)
IC90 [5, 8]: 12.8 µg/mL (≈ 78.8 µM)

COC1CCCC(OO)CO1 (stereo in doubt)
IC10 [3]: 11.4131 µg/mL (≈ 70.4 µM)
IC50 [4]: 15.45681 µg/mL (≈ 95.3 µM)
IC50 [1]: 10.0532 µg/mL (≈ 62 µM)
IC10 [2]: 2.65375 µg/mL (≈ 16.4 µM)
IC90 [2]: 38.08448 µg/mL (≈ 235 µM)
IC90 [5]: 20.93322 µg/mL (≈ 129 µM)

C[C@@H]1CC[C@H]2[C@@H](C)C(=O)O[C@@H]3O[C@@]4(C)CC[C@@H]1[C@]32OO4 [ARTEMISININ]
IC10 [3, 7]: 0.00049 µg/mL (≈ 0.00174 µM)
IC50 [4, 6]: 0.00072 µg/mL (≈ 0.00255 µM)
IC50 [1, 6]: 0.00083 µg/mL (≈ 0.00294 µM)
IC10 [2, 7]: 0.00032 µg/mL (≈ 0.00113 µM)
IC90 [2, 8]: 0.00213 µg/mL (≈ 0.00754 µM)
IC90 [5, 8]: 0.00105 µg/mL (≈ 0.00372 µM)

CCN(CC)CCCC(C)Nc1ccnc2cc(Cl)ccc12 (stereo unspecified) [CHLOROQUINE]
IC10 [3, 7]: 0.0527 µg/mL (≈ 0.165 µM)
IC10 [2, 7]: 0.00201 µg/mL (≈ 0.00628 µM)
IC90 [2, 8]: 0.00361 µg/mL (≈ 0.0113 µM)
IC90 [5, 8]: 0.0931 µg/mL (≈ 0.291 µM)

OC(c1cc(C(F)(F)F)nc2c(C(F)(F)F)cccc12)C1CCCCN1 (stereo unspecified) [MEFLOQUINE]
IC10 [3, 7]: 0.00117 µg/mL (≈ 0.00309 µM)
IC50 [4, 6]: 0.00209 µg/mL (≈ 0.00552 µM)
IC50 [1, 6]: 0.00686 µg/mL (≈ 0.0181 µM)
IC10 [2, 7]: 0.00122 µg/mL (≈ 0.00322 µM)
IC90 [2, 8]: 0.0385 µg/mL (≈ 0.102 µM)
IC90 [5, 8]: 0.00373 µg/mL (≈ 0.00986 µM)
